Experimental findings from article PMC12858405, “Ideal efficacy photoswitching for chromocontrol of TRPC4/5 channel functions in live tissues” (Nature Chemical Biology, 2026) are described below.

Molecules are shown by their SMILES.

For one experiment, the target named is T1, mouse TRPC4β (Mus musculus, UniProt Q9QUQ5).
T1 construct: expressed in transfected cells; host or cells: HEK293 (ATCC CRL 1573), stably transfected, tetracycline-induced
T1 sequence (Q9QUQ5 1-890 isoform Q9QUQ5-2): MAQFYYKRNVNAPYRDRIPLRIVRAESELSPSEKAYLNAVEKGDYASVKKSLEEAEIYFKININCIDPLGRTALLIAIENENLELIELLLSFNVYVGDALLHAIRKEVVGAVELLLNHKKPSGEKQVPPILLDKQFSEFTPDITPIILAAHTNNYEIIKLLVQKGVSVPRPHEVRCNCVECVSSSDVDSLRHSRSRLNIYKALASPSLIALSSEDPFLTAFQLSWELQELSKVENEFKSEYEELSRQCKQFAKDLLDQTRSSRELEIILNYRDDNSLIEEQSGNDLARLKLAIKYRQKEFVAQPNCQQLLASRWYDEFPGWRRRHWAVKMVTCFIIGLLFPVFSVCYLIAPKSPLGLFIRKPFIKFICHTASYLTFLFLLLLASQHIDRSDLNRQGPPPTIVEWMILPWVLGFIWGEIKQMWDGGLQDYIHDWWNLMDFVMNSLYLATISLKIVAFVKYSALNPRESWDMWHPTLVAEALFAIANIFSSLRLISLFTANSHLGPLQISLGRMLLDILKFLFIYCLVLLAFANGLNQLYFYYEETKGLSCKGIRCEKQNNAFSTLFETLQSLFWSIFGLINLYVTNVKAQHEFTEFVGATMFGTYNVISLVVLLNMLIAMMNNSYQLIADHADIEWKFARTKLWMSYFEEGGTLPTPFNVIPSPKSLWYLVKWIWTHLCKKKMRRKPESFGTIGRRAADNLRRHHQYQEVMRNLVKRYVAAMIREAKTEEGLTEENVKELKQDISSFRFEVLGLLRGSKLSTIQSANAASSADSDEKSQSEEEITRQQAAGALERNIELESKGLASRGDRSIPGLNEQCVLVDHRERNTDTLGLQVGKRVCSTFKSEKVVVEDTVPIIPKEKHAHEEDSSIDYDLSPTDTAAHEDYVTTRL
Briefly: FLIPR Ca2+ influx assay (Fluo-4) with 365/447 nm photoswitching, HEK293 stably expressing mouse TRPC4β. The experiment is classed as cell-based. The settings on record: Z* = mostly-Z PSS under 365 nm LED; Fluo-4-loaded cells; read-out: Agonistic EC50 (365 nm) TRPC4. From the text: (§1) We initially screened for the photoswitchability of activity in cells using a fluorometric imaging plate reader (FLIPR) calcium flux assay, with HEK293 cells stably expressing mouse TRPC4β or mouse TRPC5. Note, however, that the parallel-throughput FLIPR setup is limited to use fixed light-emitting diodes at 365 nm (good Z) and 447 nm (suboptimal E), which, combined with the slowness of the onset and recovery of the fluorescence readout for calcium, causes the FLIPR results to underestimate the reagents’ true speed, degree and completion of TRPC chromocontrol (shown later). […]
(§2) 3 Cultured Cell Lines (primarily for Fig. 1 and Fig. 2)
(§3) 3.1 FLIPR Ca2+ influx assay in cell suspensions.
(§4) We initially screened for photoswitchability of activity in cells, using a fluorometric imaging plate reader (FLIPR) calcium flux assay, with human embryonic kidney cell line HEK293 stably transfected to express mouse TRPC4β- or TRPC5-CFP fusion protein (HEKmTRPC4β-CFP / HEKmTRPC5-CFP, HEK293 obtained from ATCC CRL 1573). The FLIPR setup provides high-content data, but it is limited to using LED wavelengths of 365 nm (best-Z) and 447 nm (suboptimal-E), while imaging at 470 nm excitation (Fluo-4 AM as Ca2+ indicator; this imaging light counteracts both PSSs). Therefore, we expected the FLIPR results to under-estimate the true chromocontrol power accessible to the reagents.
(§5) Cells were grown to 70%-90% confluency in a 75-cm2 culture flask, trypsinised, washed and resuspended in BSA-containing (0.1%) HBS, and supplemented with 3 µM Fluo-4/AM. Stably TRPC-transfected cells were induced with tetracycline 24 h prior to the experiments.42,43 After incubation at 37°C for 30 min [Fluo-4 loading], cells were again washed, resuspended, and dispensed (40 µl/well) into black pigmented, clear-bottom 384-well plates (Greiner µ-clear). To image the Fluo-4 fluorescence during the application and photoswitching of test compounds, these plates were first mounted to a Tecan Fluent 480 (Tecan, Männedorf, Switzerland) liquid handling device, equipped with a 384-tip multichannel arm and a gripper arm. A custom-made plate-imaging device was used for photoswitching during fluorescence imaging, which features LED-based excitation modules (365 nm and 447 nm used here for photoswitching, and 470 nm used here for Fluo-4 readout) projected onto the bottom of the microwell plate, with a cooled scientific complementary metal oxide sensor (sCMOS) camera (Zyla 5.5, Andor, Belfast, UK) equipped with a Nokton 42.5 mm f/0.95 (Voigtlaender, Fürth, Germany) for detection. The LEDs were controlled with an Arduino device and constant current drivers (1 A for 365 and 470 nm LEDs; 3 A for 447 nm LED); detection was under the control of Micromanager 2.0 software. Compounds were serially diluted and applied to the Fluo-4-loaded cell suspensions inside this custom plate-imaging device, then fluorescence intensities (under 470 nm excitation) were continuously recorded during programmed illuminations e.g. with alternating 365 nm and 447 nm phases.
(§6) Concentration-response curves for the Z-isomers (channel activation) were then constructed from the maximal signals during 365 nm phases, after a suitable number of "priming" cycles to allow the system to reach stable performance (Supplementary Fig. 13).
All experiments were conducted as a minimum of 3 independent experiments with each experiment averaging data in technical duplicates.
Cellular TRPC4 photoswitching: HEK cell Ca2+ influx photomodulation […]
Supplementary Figure 12. […]

Another experiment addresses T2, mouse TRPC5 (Mus musculus, UniProt Q9QX29).
T2 construct: expressed in transfected cells; host or cells: HEK293 (ATCC CRL 1573), stably transfected, tetracycline-induced
T2 sequence (Q9QX29 1-975): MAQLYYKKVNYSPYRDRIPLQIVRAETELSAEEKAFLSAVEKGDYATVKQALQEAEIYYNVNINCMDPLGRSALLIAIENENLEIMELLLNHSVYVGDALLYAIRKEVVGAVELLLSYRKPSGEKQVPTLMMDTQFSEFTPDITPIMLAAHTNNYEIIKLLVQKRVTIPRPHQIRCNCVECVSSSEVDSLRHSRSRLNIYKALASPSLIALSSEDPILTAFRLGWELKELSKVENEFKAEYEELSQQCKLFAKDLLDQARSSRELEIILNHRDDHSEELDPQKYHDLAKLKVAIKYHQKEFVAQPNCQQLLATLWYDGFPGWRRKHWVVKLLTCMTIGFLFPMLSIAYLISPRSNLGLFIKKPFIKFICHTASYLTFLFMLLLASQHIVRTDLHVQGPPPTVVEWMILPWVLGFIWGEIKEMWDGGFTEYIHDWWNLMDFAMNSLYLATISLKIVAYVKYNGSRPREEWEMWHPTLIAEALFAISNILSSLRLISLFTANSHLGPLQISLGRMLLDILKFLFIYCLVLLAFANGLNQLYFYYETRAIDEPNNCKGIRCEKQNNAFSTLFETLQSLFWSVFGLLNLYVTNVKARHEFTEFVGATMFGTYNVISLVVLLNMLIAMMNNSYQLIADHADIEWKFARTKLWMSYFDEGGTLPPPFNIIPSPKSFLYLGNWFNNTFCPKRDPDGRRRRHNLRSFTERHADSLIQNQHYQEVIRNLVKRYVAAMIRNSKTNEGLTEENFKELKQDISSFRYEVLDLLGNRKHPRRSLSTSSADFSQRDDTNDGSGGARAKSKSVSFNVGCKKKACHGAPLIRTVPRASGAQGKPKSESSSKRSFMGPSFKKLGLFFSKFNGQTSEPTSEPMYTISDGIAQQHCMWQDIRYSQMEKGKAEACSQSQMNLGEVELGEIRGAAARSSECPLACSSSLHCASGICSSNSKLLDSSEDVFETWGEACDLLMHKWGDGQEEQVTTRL
Nature of the experiment: FLIPR Ca2+ influx assay (Fluo-4) with 365/447 nm photoswitching, HEK293 stably expressing mouse TRPC5. The experiment is classed as cell-based. The settings on record: Z* = mostly-Z PSS under 365 nm LED; Fluo-4-loaded cells; read-out: Agonistic EC50 (365 nm) TRPC5.
Description: as §1, §2, §3, §4, §5, §6
All experiments were conducted as a minimum of 3 independent experiments with each experiment averaging data in technical duplicates. […]
Cellular TRPC5 photoswitching: HEK cell Ca2+ influx photomodulation […]
Supplementary Figure 12. […] All […]
four compounds' profiles are consistent with their being ideal efficacy photoswitches (representative traces from one experiment out of ≥3 independent experiments each run in technical duplicates). […]
log c [nM] log c [nM] log c [nM] log c [nM]
Supplementary Figure 13. Dose-response for Z*-AzPico, Z*-AzPico2, Z*-AzHC, and Z*-AzHC2 on TRPC5 and […]

For experiment [1], the system named is Th+ neurons of Th-GCaMP6f-ΔTrpc5 mice. Briefly: GCaMP6f Ca2+ imaging of Th+ neurons in arcuate nucleus brain slices with 355 nm photoswitching, Th-GCaMP6f-ΔTrpc5 (5ko) mice. The settings on record: 500 nM; 355 nm pulse.
Description: slices through the ARC of mice expressing the Ca2+ indicator GCaMP6f in Th+ neurons (Fig. 4),
we investigated (1) whether Ca2+ responses at endogenous TRPC5 expression levels can be
TRPC5 expression using TRPC5-deficient brain slices, (3) whether a dose dependence could be
detected, and (4) whether there are properties in channel activity that can be distinguished between
concentration-response measurements (Fig. 5d).
A further experiment addresses T3, EA-activated TRPC4 (Mus musculus, UniProt Q9QUQ5).
T3 construct: expressed in transfected cells; host or cells: HEK293-mTRPC4β-YFP
T3 sequence (Q9QUQ5 1-890 isoform Q9QUQ5-2): T1 sequence (Q9QUQ5 1-890 isoform Q9QUQ5-2)
Briefly: FLIPR Ca2+ assay, E isomers silencing EA-activated TRPC4 (HEK293-mTRPC4β-YFP). It counts as cell-based. The settings on record: Inhibitory IC50 (versus 30 nM EA) TRPC4, E isomer, thermally relaxed; 30 nM EA. From the text: (§7) (2) The EC50 values are reported as the midpoints of unconstrained sigmoidal fits to the FLIPR data (Fig 1l and Supplementary Fig. 2): with different levels of channel activation / blocking and very different Hill slopes across different compounds, isomers, and the two channels. This argues that the midpoint values only capture one of the several important factors describing the […]
(§8) We believe that it is possible to derive indicative relative values for binding affinity comparing the E and Z isomers of the same compound using only the combination of FLIPR and ephys data as reported in this paper; this analysis is being developed in a separate paper (see also below).
(§9) Supplementary Table 1. Potencies on TRPC4/5 depicted as either simple agonistic potency (blue) or else inhibitory […]
(§10) . Z*-values refer to mostly-Z-isomer reached at PSS at 365 nm, E*-values refer to experiments that initially applied 100% E-isomer (thermally relaxed), though in both cases the Ca2+ imaging in FLIPR with Fluo4-AM uses 470 nm excitation, which may over time promote photoswitching towards a PSS that is intermediate between those of pure-365 nm and all-E; this is controlled for in the more reliable ephys measurements). (Table indices: a, data from ref7; b, data from ref2; c, data from ref3; d, data from ref8.) EC50 [nM] (for simple agonism or EA-competitive inhibition)
(§11) E-AzPico 90 (vs 30 nM EA) 67 (vs 30 nM EA) […]
(§12) orange: inhibitory effect ag.: agonistic effect
(§13) 1.1.1 From always-active antagonists and agonists towards efficacy photoswitches […]
(§14) photoisomerising an azobenzene that is merged in at the C’4 position yielding the compounds […]
deliver (Fig. 1-2) is a powerful support for an efficacy switch interpretation. To indirectly support this further, we also measured the effects of E-AzPico and E-AzHC against EA-activated TRPC4/5. […]
(§15) to be an EA-competitive binder5,9,10), so their efficacy as single agent photoswitches results from E/Z-competitive binding that is determined by their PSS. […]
(§16) Supplementary Table 2. […] (a Inhibitory effect measured against 30 nM EA; b Inhibitory effect measured against 50 nM EA). […]

For another experiment, the target named is T4, EA-activated TRPC5 (Mus musculus, UniProt Q9QX29).
T4 construct: expressed in transfected cells; host or cells: HEK293-mTRPC5-YFP
T4 sequence (Q9QX29 1-975): T2 sequence (Q9QX29 1-975)
Nature of the experiment: FLIPR Ca2+ assay, E isomers silencing EA-activated TRPC5 (HEK293-mTRPC5-YFP). It counts as cell-based.
Description: Müller, Niemeyer, et al., Schaefer & Thorn-Seshold 2025: Ideal Efficacy Photoswitching of TRPC4/5 in Tissue but it can justify why the affinity of the E/Z-isomers may be similar.
as §7, §8, §9, §10, §11, §12, §13, §14
inhibitory effect for the E-isomers (Supplementary Table 1). Essentially, the effects of Pico145 and AM237 are latent within a single (two-state reversibly photoswitchable) molecule. This combination is what we call an efficacy switch (also see main text Fig. 1e-j).
1.1.2 Mechanistic test for efficacy photoswitching […]
deliver (Fig. 1-2) is a powerful support for an efficacy switch interpretation. To indirectly support this further, we also measured the effects of E-AzPico and E-AzHC against EA-activated TRPC4/5.
Both E-isomers bind to TRPC4/5 and inhibit EA-evoked currents with nanomolar potencies (Supplementary Fig. 2, Supplementary Table 2). This supports the hypothesis that E- […]
as §15, §16

Regarding `Cn1c(=O)n(CCCO)c(=O)c2c1nc(Oc1ccc(/N=N\c3ccccc3)c(OC(F)(F)F)c1)n2Cc1ccc(Cl)cc1` [Z*-AzPico], the EC50 was 3 nM on mouse TRPC4β and 4 nM at mouse TRPC5. Further, the “Ca2+ photoresponse in TRPC5-knockout slices” value in experiment [1] was “maintained”.

With `Cn1c(=O)n(CCCO)c(=O)c2c1nc(Oc1ccc(/N=N/c3ccccc3)c(Cl)c1)n2Cc1ccc(Cl)cc1` [E-AzHC], the IC50 at EA-activated TRPC4 amounted to 110 nM; at EA-activated TRPC5 (Inhibitory IC50 (versus 30 nM EA) TRPC5, E isomer, thermally relaxed, 30 nM EA), 149 nM; on EA-activated TRPC5 (Inhibitory IC50 (versus 50 nM EA) TRPC5, E isomer, 50 nM EA) it was 177 nM.

What is called EC50 is the concentration that produces a half-maximal response. As usually defined, the IC50 is the concentration at which inhibition is half-maximal.
